From ChEMBL document CHEMBL4219201, “Secoiridoid analogues from the fruits of Ligustrum lucidum and their inhibitory activities against influenza A virus” (Bioorg Med Chem Lett, 2018)
Activity calls are given as the source filed them. The calls are words filed in the database; no cut-off is given here.

Assays:
Influenza A virus [1] = assay: Antiviral activity against Influenza A virus (A/WSN/1933(H1N1)) infected in MDCK cells cocultured with human 293T-Gluc cells at 100 uM preincubated with compound for 2 hrs followed by virus infection measured after 24 hrs by luciferase reporter gene assay relative to control; type: functional
Influenza A virus [2] = assay: Antiviral activity against Influenza A virus (A/WSN/1933(H1N1)) infected in MDCK cells cocultured with human 293T-Gluc cells at 20 uM preincubated with compound for 2 hrs followed by virus infection measured after 24 hrs by luciferase reporter gene assay relative to control; type: functional
Influenza A virus [3] = assay: Antiviral activity against Influenza A virus (A/WSN/1933(H1N1)) infected in MDCK cells cocultured with human 293T-Gluc cells preincubated with compound for 2 hrs followed by virus infection measured after 24 hrs by luciferase reporter gene assay; type: functional, organism-based
[4] = Cytotoxicity against MDCK cells assessed as reduction in cell viability by CCK8 assay; type: cell-based, Canis lupus familiaris; details: dog

SMILES | inhibition at 100 µM (Influenza A virus [1]) [%] | inhibition at 20 µM (Influenza A virus [2]) [%] | inhibition (Influenza A virus [1]) | inhibition (Influenza A virus [2]) | IC50 (Influenza A virus [3]) [µM] | CC50 [4] [µM]
COC(=O)C1=CO[C@@H](O[C@@H]2O[C@H](CO)[C@@H](O)[C@H](O)[C@H]2O)[C@@](O)(CC(=O)O)[C@@H]1CC(=O)O | 76.2 | 29.4 | – | – | – | –
C=C[C@H]1[C@H](O[C@@H]2O[C@H](COC(=O)/C=C/c3ccccc3)[C@@H](O)[C@H](O)[C@H]2O)OC=C(C(=O)O)[C@H]1CC(=O)OC | – | – | inactive | inactive | – | –
C=C[C@H]1[C@H](O[C@@H]2O[C@H](COC(=O)/C=C/c3ccccc3)[C@@H](O)[C@H](O)[C@H]2O)OC=C(C(=O)O)[C@H]1CC(=O)O | 73.9 | 60.8 | – | – | 16.5 | 80.5
CCOC(=O)C[C@@H]1C(C(=O)OC)=CO[C@@H](C)[C@@H]1C=O | 96.8 | 55.8 | – | – | 18.5 | 90.8
COC(=O)C1=CO[C@@H](O[C@@H]2O[C@H](CO)[C@@H](O)[C@H](O)[C@H]2O)/C(=C/C(=O)O)[C@@H]1CC(=O)OCCc1ccc(O)cc1 | 81.7 | 60.4 | – | – | 12.5 | > 100
NC(=O)c1ncn([C@@H]2O[C@H](CO)[C@@H](O)[C@H]2O)n1 [RIBAVIRIN] | – | – | – | – | 22.6 | –
COC(=O)C1=CO[C@@H](O[C@@H]2O[C@H](CO)[C@@H](O)[C@H](O)[C@H]2O)/C(=C/C(=O)O)[C@@H]1CC(=O)OCCc1ccc(O)c(O)c1 | 83.2 | 63.1 | – | – | 13.1 | > 100
C/C=C1/[C@H]2OC=C(C(=O)OC)[C@H]1CC(=O)OC[C@H](c1ccc(O)c(O)c1)OC[C@H]1O[C@@H](O2)[C@H](O)[C@@H](O)[C@@H]1O | – | – | inactive | inactive | – | –
C[C@H]1OC(=O)CC2C(C(=O)O)=CO[C@@H](O[C@@H]3O[C@H](COC(=O)/C=C/c4ccccc4)[C@@H](O)[C@H](O)[C@H]3O)C21 (stereo partly specified) | 33.3 | 35.6 | – | – | – | –
COC(=O)C[C@@H]1C(C(=O)OC)=CO[C@@H](C)[C@@H]1C(OC)OC | – | – | inactive | inactive | – | –
C/C=C1/[C@H](O[C@@H]2O[C@H](CO[C@@H]3O[C@H](CO)[C@@H](O)[C@H](O)[C@H]3O)[C@@H](O)[C@H](O)[C@H]2O)OC=C(C(=O)OC)[C@H]1CC(=O)OCCc1ccc(O)cc1 | 60.8 | 17.8 | – | – | – | –
C/C=C1/[C@H]2OC=C(C(=O)OC)[C@H]1CC(=O)OC[C@@H](c1ccc(O)c(O)c1)OC[C@H]1O[C@@H](O2)[C@H](O)[C@@H](O)[C@@H]1O | – | – | inactive | inactive | – | –
